Laboratory results from article PMC10819888, “Benzimidazole-Based Derivatives as Apoptotic Antiproliferative Agents: Design, Synthesis, Docking, and Mechanistic Studies” (Molecules, 2024).

Tests used:
Assay type in all cases: cell-based, human
RPMI-8226 = assay: NCI-60 five-dose assay; conditions: RPMI-8226 (Leukemia), 48 h
K-562 = assay: NCI-60 five-dose assay; conditions: K-562 (Leukemia), 48 h
NCI-H322M = assay: NCI-60 five-dose assay; conditions: NCI-H322M (Non-Small Cell Lung Cancer), 48 h
HCC-2998 = assay: NCI-60 five-dose assay; conditions: HCC-2998 (Colon Cancer), 48 h
HCT-116 = assay: NCI-60 five-dose assay; conditions: HCT-116 (Colon Cancer), 48 h
SF-268 = assay: NCI-60 five-dose assay; conditions: SF-268 (CNS Cancer), 48 h
SNB-19 = assay: NCI-60 five-dose assay; conditions: SNB-19 (CNS Cancer), 48 h
SNB-75 = assay: NCI-60 five-dose assay; conditions: SNB-75 (CNS Cancer), 48 h
LOX IMVI = assay: NCI-60 five-dose assay; conditions: LOX IMVI (Melanoma), 48 h
SK-MEL-28 = assay: NCI-60 five-dose assay; conditions: SK-MEL-28 (Melanoma), 48 h
SK-MEL-5 = assay: NCI-60 five-dose assay; conditions: SK-MEL-5 (Melanoma), 48 h
UACC-62 = assay: NCI-60 five-dose assay; conditions: UACC-62 (Melanoma), 48 h
IGROV1 = assay: NCI-60 five-dose assay; conditions: IGROV1 (Ovarian Cancer), 48 h
OVCAR-8 = assay: NCI-60 five-dose assay; conditions: OVCAR-8 (Ovarian Cancer), 48 h
NCI/ADR-RES = assay: NCI-60 five-dose assay; conditions: NCI/ADR-RES (Ovarian Cancer), 48 h
786-0 = assay: NCI-60 five-dose assay; conditions: 786-0 (Renal Cancer), 48 h
A498 = assay: NCI-60 five-dose assay; conditions: A498 (Renal Cancer), 48 h
RXF 393 = assay: NCI-60 five-dose assay; conditions: RXF 393 (Renal Cancer), 48 h
TK-10 = assay: NCI-60 five-dose assay; conditions: TK-10 (Renal Cancer), 48 h
PC-3 = assay: NCI-60 five-dose assay; conditions: PC-3 (Prostate Cancer), 48 h
MCF7 = assay: NCI-60 five-dose assay; conditions: MCF7 (Breast Cancer), 48 h
HS 578T = assay: NCI-60 five-dose assay; conditions: HS 578T (Breast Cancer), 48 h
T-47D = assay: NCI-60 five-dose assay; conditions: T-47D (Breast Cancer), 48 h
Prostate Cancer subpanel = assay: NCI-60 five-dose assay, subpanel
Breast Cancer subpanel = assay: NCI-60 five-dose assay, subpanel
[1] = Homo sapiens, read-out: GI50 Conc. per Cell Line
[2] = Homo sapiens, read-out: LC50 (the source's name)

## O=C(NN=Cc1ccc(Cl)cc1)c1ccc2[nH]c(-c3ccc(Cl)cc3)nc2c1 [Compound 4e, N′-(4-Chlorobenzylidene)-2-(4-chlorophenyl)-1H-benzimidazole-5-carbohydrazide]
RPMI-8226; [1]
  GI50: 1.16 µM
RPMI-8226; [2]
  CC50: 16.5 µM
RPMI-8226
  TGI: 3.52 µM
K-562; Homo sapiens, K562, read-out: GI50 Conc. per Cell Line
  GI50: 0.969 µM
K-562; Homo sapiens, K562, read-out: LC50 (the source's name)
  CC50: 12.3 µM
K-562
  TGI: 3.23 µM
NCI-H322M; [1]
  GI50: 2.15 µM
NCI-H322M; [2]
  CC50: 19.8 µM
NCI-H322M
  TGI: 5.26 µM
HCC-2998
  TGI: 3.44 µM
HCC-2998; [1]
  GI50: 1.82 µM
HCC-2998; [2]
  CC50: 6.5 µM
HCT-116
  TGI: 3.51 µM
HCT-116; [1]
  GI50: 1.45 µM
HCT-116; [2]
  CC50: 8.52 µM
SF-268; [1]
  GI50: 2.08 µM
SF-268; [2]
  CC50: 9.09 µM
SF-268
  TGI: 4.35 µM
SNB-19; [1]
  GI50: 2.34 µM
SNB-19; [2]
  CC50: 13.3 µM
SNB-19
  TGI: 5.06 µM
SNB-75; [1]
  GI50: 1.59 µM
SNB-75; [2]
  CC50: 8.22 µM
SNB-75
  TGI: 3.62 µM
LOX IMVI; [1]
  GI50: 1.57 µM
LOX IMVI; [2]
  CC50: 5.5 µM
LOX IMVI
  TGI: 2.94 µM
SK-MEL-28; [1]
  GI50: 1.58 µM
SK-MEL-28; [2]
  CC50: 5.86 µM
SK-MEL-28
  TGI: 3.04 µM
SK-MEL-5; [1]
  GI50: 1.81 µM
SK-MEL-5; [2]
  CC50: 6.33 µM
SK-MEL-5
  TGI: 3.39 µM
UACC-62; [1]
  GI50: 1.78 µM
UACC-62; [2]
  CC50: 6.49 µM
UACC-62
  TGI: 3.40 µM
IGROV1; Homo sapiens, IGROV-1, read-out: GI50 Conc. per Cell Line
  GI50: 1.5 µM
IGROV1; Homo sapiens, IGROV-1, read-out: LC50 (the source's name)
  CC50: 5.92 µM
IGROV1
  TGI: 2.98 µM
OVCAR-8; [1]
  GI50: 2.11 µM
OVCAR-8; [2]
  CC50: 16.5 µM
OVCAR-8
  TGI: 4.74 µM
NCI/ADR-RES; [1]
  GI50: 1.83 µM
NCI/ADR-RES; [2]
  CC50: 12.7 µM
NCI/ADR-RES
  TGI: 4.43 µM
786-0
  TGI: 3.48 µM
786-0; [1]
  GI50: 1.79 µM
786-0; [2]
  CC50: 6.76 µM
A498
  TGI: 4.94 µM
A498; [1]
  GI50: 1.74 µM
A498; [2]
  CC50: 19.6 µM
RXF 393; [1]
  GI50: 1.61 µM
RXF 393; [2]
  CC50: 6.64 µM
RXF 393
  TGI: 3.27 µM
TK-10; [1]
  GI50: 2.06 µM
TK-10; [2]
  CC50: 8.98 µM
TK-10
  TGI: 4.30 µM
PC-3; Homo sapiens
  LC50: 7.05 µM
PC-3; [1]
  GI50: 1.55 µM
PC-3
  TGI: 3.30 µM
MCF7; [1]
  GI50: 1.15 µM
MCF7; [2]
  CC50: 5.73 µM
MCF7
  TGI: 2.56 µM
HS 578T
  TGI: 5.27 µM
HS 578T; [1]
  GI50: 2.28 µM
HS 578T; [2]
  CC50: 63.2 µM
T-47D; Homo sapiens, T47D, read-out: GI50 Conc. per Cell Line
  GI50: 1.79 µM
T-47D; Homo sapiens, T47D, read-out: LC50 (the source's name)
  CC50: 8.21 µM
T-47D
  TGI: 3.83 µM
Prostate Cancer subpanel; Homo sapiens, Prostate Cancer, average sensitivity of all subpanel cell lines, read-out: GI50 Subpanel MID b
  GI50: 1.65 µM
Prostate Cancer subpanel; Prostate Cancer subpanel
  GI50 Selectivity Ratio (MID a/MID b): 1.08
Breast Cancer subpanel; Breast Cancer subpanel
  GI50 Selectivity Ratio (MID a/MID b): 0.79
Breast Cancer subpanel; Homo sapiens, Breast Cancer, average sensitivity of all subpanel cell lines, read-out: GI50 Subpanel MID b
  GI50: 2.27 µM
